{"source": "patent US20140357602A1", "about": "“Combination Therapies For Treating Metabolic Disorders” (Genmedica Therapeutics SL, priority 2009, published 2014)", "key": {"[1]": {"system": "islets", "conditions": "low-dose streptozotocin-induced insulitis; cited from earlier work"}, "[2]": {"system": "alloxan-treated cd-1 mice", "assay": "Alloxan induced beta cell destruction model (in vivo β-cell protection)", "procedure": "In Vivo β-Cell Protection Model β-cell destruction was induced in cd-1 male mice after 3 hours of fasting by a single intra-peritoneal (i.p.) injection of a freshly prepared solution of alloxan 200 mg/kg (Sigma-Aldrich, San Luis, Mo.) that was dissolved in NaCl 0.9%. One single intra-peritoneal drug administration was given one hour before the Alloxan administration. […] At the end of the treatment, day 4, animals were sacrificed and the plasma collected and kept at −20° C. until used.\nPancreatic beta cell destruction was induced in the cd-1 mice after 3 hours of fasting by a single intraperitoneal injection of a freshly prepared solution of alloxan 200 mg/kg (Sigma-Aldrich, San Luis, Mo.) that was dissolved in NaCl 0.9%. Single drug intraperitoneal administration was 1 hour before the alloxan administration. […] The control group was injected with the vehicle, PBS at pH 7.4. Glycemia was measured on arterio-venous blood collected from the tail vessels between 9:00 and 10:00 am on day 0 (day of drug administration) to day 4."}, "[3]": {"system": "INS-1E β-cells", "assay": "In vitro INS-1E β-cell assay (apoptosis, caspase 3/7)", "assay_type": "cell-based", "conditions": "apoptosis promoted by high (11 mM) glucose and high (0.4 mM) palmitate", "procedure": "INS-1E β-cells were cultivated in the presence of a high glucose concentration (11 mM) and a high palmitate concentration (0.4 mM bound to BSA 0.5%) in order to promote glucotoxicity and lipotoxicity. […] The capacity of protecting β-cells with different combinations of antioxydants and anti-inflammatory agents were tested using these stressing conditions that reflect the pathophysiological conditions implicated in pancreatic dysfunction related to diabetes onset. INS-1E cells were seeded at a density of 80,000 cells/cm^2 in 96 wells plates 4 days before the beginning of the treatment. At 60-80% of confluence, cells were fasted with RPMI 5 mM of glucose+FBS 10%. […] The day after, fasting medium was changed by the stressing medium (glucose […]+palmitate 0.4 mM bound to BSA 0.5%). Medium, and tested agents when present, were changed every 24 h. 48 h after the addition of the stressing medium, apoptosis was measured with Apo-One Homogeneous Caspase 3/7 Assay (Promega) which determines the activity of caspase 3 and 7. […] Resulting fluorescence was read at 485/530 (excitation/emission wave length). The background apoptosis, in absence of stressing condition, was determined with INS 1E-cells cultured in the presence of fasting medium (RPMI 5 mM glucose+FBS 10%). […]"}, "[4]": {"system": "type II diabetes patients", "conditions": "cited from earlier work"}, "[5]": {"conditions": "type II diabetes patients, 4 grams/day"}}}
{"compound": "CC(=O)N[C@@H](CS)C(=O)O", "note": "[N-acetylcysteine]", "values": [{"measurement": "protection of islets from immune destruction", "setting": "[1]", "result": "partially protect"}, {"measurement": "glycemia", "setting": "[2]; FIG. 3, NAC alone i.p. 0.38 and 0.75 mmol/kg", "result": "significant reductions of glycemia were observed only at the highest administered concentrations"}, {"measurement": "insulinemia", "setting": "[2]; FIG. 3, NAC alone i.p., highest concentrations administered", "result": "significantly increased"}, {"measurement": "glycemia", "setting": "[2]; NAC alone 0.19 mmol/kg i.p.", "result": "not to affect glycemia"}, {"measurement": "glycemia", "setting": "[2]; NAC alone 0.38 mmol/kg", "result": "statistically-significant reductions in glycemia"}]}
{"compound": "O=C([O-])c1ccccc1O.[Na+]", "note": "[Salicylate, Sodium Salicylate]", "values": [{"measurement": "glycemia", "setting": "[2]; FIG. 3, salicylate alone i.p. 0.38, 0.75 and 1.5 mmol/kg", "result": "significant reductions of glycemia were observed only at the highest administered concentrations"}, {"measurement": "glycemia", "setting": "[2]; sodium salicylate alone 0.38 mmol/kg i.p.", "result": "not to affect glycemia"}, {"measurement": "glycemia", "setting": "[2]; sodium salicylate alone 0.75 mmol/kg", "result": "statistically-significant reductions in glycemia"}]}
{"compound": "NCCS(=O)(=O)O", "note": "[Taurine]", "values": [{"measurement": "Combination concentrations (concentrations that reduced apoptosis)", "setting": "[3]", "result": 3, "unit": "mM"}]}
{"compound": "CC(=O)Oc1ccccc1C(=O)O", "note": "[aspirin]", "values": [{"measurement": "glucose levels", "setting": "[4]; patients with diabetes, high dosage", "result": "lower"}]}
{"compound": "CC(=O)N(O)CCCCCNC(=O)CCC(=O)N(O)CCCCCNC(=O)CCC(=O)N(O)CCCCCN", "note": "[desferrioxamine]", "values": [{"measurement": "protection of islets from immune destruction", "setting": "[1]", "result": "partially protect"}]}
{"compound": "NC(=O)c1cccnc1", "note": "[nicotinamide]", "values": [{"measurement": "protection of islets from immune destruction", "setting": "[1]", "result": "partially protect"}]}
{"compound": "O=C(Oc1ccccc1C(=O)O)c1ccccc1O", "note": "[salsalate]", "values": [{"measurement": "fasting glucose", "setting": "[4]; [5]", "result": "lowered"}, {"measurement": "inflammation", "setting": "[4]; [5]", "result": "reduced"}]}
{"compound": "Cc1c(C)c2c(c(C)c1O)CC[C@@](C)(CCC[C@H](C)CCC[C@H](C)CCCC(C)C)O2", "note": "[α-tocopherol]", "values": [{"measurement": "Combination concentrations (concentrations that reduced apoptosis)", "setting": "[3]", "result": 1, "unit": "mM"}]}
